Experimental data published in paper PMC6155222, “3-Substituted N-Benzylpyrazine-2-carboxamide Derivatives: Synthesis, Antimycobacterial and Antibacterial Evaluation” (Molecules : A Journal of Synthetic Chemistry and Natural …, 2017).
In brackets after ≈: the same amount, converted by molar mass.

Columns and labels:
[1] = system: Mycobacterium smegmatis CCM 4622 (ATCC 607); assay: Antimycobacterial screening, microdilution broth panel method with resazurin; type: cell-based; details: Mycolicibacterium smegmatis, 48 h + 4 h
Protocol: An antimycobacterial assay was performed with fast growing Mycobacterium smegmatis CCM 4622 (ATCC 607) from the Czech Collection of Microorganisms (Brno, Czech Republic). The technique used for activity determination was a microdilution broth panel method using 96-well microtitration plates. The culturing medium was Middlebrook 7H9 (MB) broth (Sigma-Aldrich), enriched with 0.4% of glycerol (Sigma-Aldrich) and 10% of Middlebrook OADC growth supplement (Himedia, Mumbai, India). Tested compounds were dissolved in DMSO (Sigma-Aldrich), and the MB broth was then added to obtain a concentration of 2000 μg·mL^−1. Standards used for activity determination were isoniazid (INH), rifampicin (RIF), and ciprofloxacin (CPX) (Sigma-Aldrich). Final concentrations were reached by binary dilution and the addition of mycobacterial suspension, and were set as 500, 250, 125, 62.5, 31.25, 15.625, 7.81, and 3.91 μg·mL^−1, except for the standards of ciprofloxacin and rifampicin, where the final concentrations were 12.5, 6.25, 3.125, 1.56, 0.78, 0.39, 0.195, and 0.098 μg·mL^−1. […] Plates were also sealed with polyester adhesive film and incubated in the dark at 37 °C, without agitation. The addition of 0.01% solution of resazurin sodium salt followed after 48 h. This stain was prepared by dissolving resazurin sodium salt (Sigma-Aldrich) in deionised water, producing a 0.02% solution. Then, a 10% aqueous solution of Tween 80 (Sigma-Aldrich) was prepared. Both liquids were mixed up making use of the same volumes and filtered through a syringe membrane filter. Microtitration panels were then incubated for a further 4 h. Antimycobacterial activity was expressed as the minimal inhibition concentration (MIC) and the value was read on the basis of stain colour change (blue colour—active compound; pink colour—not active compound). […] All experiments were conducted in duplicate.

[2] = system: Staphylococcus aureus H 5996/08-methicilin resistant (MRSA); assay: Antibacterial microdilution broth method; type: cell-based; details: Staphylococcus aureus, MRSA, 24 h; read-out: MIC after 24 h MRSA
Protocol: (§1) Microdilution broth method. Antibacterial evaluation was performed against eight bacterial strains from the Czech Collection of Microorganisms (Brno, Czech Republic) (Staphylococcus aureus CCM 4516/08, Escherichia coli CCM 4517, Pseudomonas aeruginosa CCM 1961) or clinical isolates from the Department of Clinical Microbiology, University Hospital and Faculty of Medicine in Hradec Králové, Charles University in Prague, Czech Republic (Staphylococcus aureus H 5996/08-methicilin resistant (MRSA), Staphylococcus epidermidis H 6966/08, Enterococcus sp. J 14365/08, Klebsiella pneumoniae D 11750/08, Klebsiella pneumoniae J 14368/08-ESBL positive). All strains were subcultured on Mueller-Hinton agar (MHA) (Difco/Becton Dickinson, Detroit, MI, USA) at 35 °C and maintained on the same medium at 4 °C. The compounds were dissolved in DMSO, and the antibacterial activity was determined in Mueller-Hinton liquid broth (Difco/Becton Dickinson), and buffered to pH 7.0. Controls consisted of medium and DMSO alone. […] The minimum inhibitory concentration (MIC), defined as the minimum concentration to prevent the visible growth compared to control, was determined after 24 and 48 h of static incubation at 35 °C. The standards were neomycin, bacitracin, penicillin G, ciprofloxacin, and phenoxymethylpenicillin.

[3] = system: Staphylococcus aureus CCM 4516/08; assay: Antibacterial microdilution broth method; type: cell-based; details: CCM4516, 24 h, read-out: MIC after 24 h S. aureus
Protocol: as §1

[4] = system: Staphylococcus epidermidis H 6966/08; assay: Antibacterial microdilution broth method; type: cell-based; details: Staphylococcus epidermidis, H6966/08, 24 h; read-out: MIC after 24 h S. epidermidis
Protocol: as §1

[5] = system: Mycobacterium tuberculosis H37Rv; assay: Microplate Alamar Blue Assay (MABA), microdilution panel method; type: cell-based
[6] = Determination of lipophilicity by RP-HPLC (log k); details: RP-HPLC capacity factor, MeOH 70% / H2O 30%, C18, 30 °C
Protocol: Log k was determined using an Agilent Technologies 1200 SL liquid chromatograph with Diode-array Detector SL G1315C (Agilent Technologies Inc., Colorado Springs, CO, USA), with pre-column ZORBAX XDB-C18 5 μm, 4 mm × 4 mm, Part No. 7995118-504 (Agilent Technologies Inc.) and column ZORBAX Eclipse XDB-C18 5 μm, 4.6 mm × 250 mm, Part No. 7995118-585 (Agilent Technologies Inc.). The separation process was controlled by Agilent ChemStation, version B.04.02, extended by a spectral module (Agilent Technologies Inc.). The mobile phase consisted of MeOH (HPLC grade, 70%) and H2O (HPLC-Milli-Q Grade, 30%).
The flow rate was 1.0 mL/min, samples were injected in a volume of 20 μL, and the column temperature was 30 °C. A value of 210 nm as the detection wavelength and 270 nm as the monitor wavelength were used. Retention times (tR) were measured in minutes. The dead time of the system (tD) was determined as the retention time of the KI methanol solution. Capacity factors k for individual compounds were calculated according to the formula k = (tR − tD)/tD. Log k, calculated from the capacity factor k, as used as the lipophilicity index converted to log scale.

[7] = Cytotoxicity assay, CellTiter 96 Aqueous One Solution; type: cell-based; details: human, HepG2 cells; for IC50 at 24 h: 24 h exposure
Protocol: The human liver hepatocellular carcinoma cell line HepG2 (passage 35–36), purchased from Health Protection Agency Culture Collections (ECACC, Salisbury, UK), was routinely cultured in Minimum Essential Eagle Medium MEM (Sigma-Aldrich) supplemented with 10% fetal bovine serum (PAA Laboratories GmbH, Pasching, Austria), 2mM L-glutamine solution (Sigma-Aldrich), and 1% non-essential amino acid solution (Sigma-Aldrich), in a humidified atmosphere containing 5% CO2 at 37 °C.
For subculturing, the cells were harvested after trypsin/EDTA (Sigma-Aldrich) treatment at 37 °C. To evaluate the cytotoxicity, the HepG2 cells treated with the tested substances were used as experimental groups, whereas untreated HepG2 cells served as control groups.
The HepG2 cells were seeded in a density of 1 × 10^4 cells per well on a 96-well plate. The following day (24 h after seeding), they were treated with tested substances dissolved in DMSO (maximal incubation concentration of DMSO was 1%). […] The treatment was carried out in a humidified atmosphere containing 5% CO2 at 37 °C, in triplicate, for 24 h. The controls representing 100% cell viability, 0% cell viability (the cells treated with 10% DMSO), no-cell controls, and vehiculum controls were incubated in triplicate, simultaneously. After 24 h exposure, the reagent from the kit CellTiter 96® Aqueous One Solution Cell Proliferation Assay (Promega) was added, according to the recommendation of the manufacturer. After 2 h incubation at 37 °C in humidified, 5% CO2 atmosphere, the absorbance was recorded at 490 nm. Inhibitory curves were constructed for each compound, plotting incubation concentrations vs. percentage of absorbance relative to untreated control. The standard toxicological parameter IC50 was calculated by a nonlinear regression analysis of the inhibitory curves using GraphPad Prism software (version 6, GraphPad Software, Inc., La Jolla, CA, USA).

[8] = system: M. avium ssp. avium Chester CNCTC My 80/72; assay: Microplate Alamar Blue Assay (MABA), microdilution panel method; type: cell-based; details: Mycobacterium avium
[9] = system: M. kansasii Hauduroy CNCTC My 235/80; assay: as above; type: cell-based; details: Mycobacterium kansasii

COc1ccc(CNC(=O)c2nccnc2NCc2ccc(OC)cc2)cc1 [Compound 3a, N-(4-Methoxybenzyl)-3-((4-methoxybenzyl)amino)pyrazine-2-carboxamide]
MIC [1]: > 500 µg/mL
MIC [2]: 62.5 µM (≈ 23.7 µg/mL)
MIC [3]: 15.6 µM (≈ 5.91 µg/mL)
MIC [4]: > 500 µM
MIC ([5]; pH 6.6): 50 µg/mL
MIC ([5]; value in parentheses): 132 µM
Log k [6]: 0.981
IC50 at 24 h [7]: > 100 µM

O=C(NCc1ccccc1Cl)c1nccnc1Cl [Compound 5, 3-Chloro-N-(2-chlorobenzyl)pyrazine-2-carboxamide]
MIC [1]: 250 µg/mL
MIC [2]: 500 µM (≈ 141 µg/mL)
MIC [3]: 7.81 µM (≈ 2.2 µg/mL)
MIC [4]: 15.6 µM (≈ 4.41 µg/mL)
MIC ([5]; pH 6.6): > 100 µg/mL
Log k [6]: 0.033
selectivity ratio at 24 h ([7]; HepG2 IC50 / MIC S. aureus, read-out: selectivity index, SI = IC50/MIC): 108
IC50 at 24 h [7]: 847 µM

O=C(NCc1ccc(Cl)cc1)c1nccnc1NCc1ccc(Cl)cc1 [Compound 7a, N-(4-Chlorobenzyl)-3-((4-chlorobenzyl)amino)pyrazine-2-carboxamide]
MIC [1]: > 250 µg/mL
MIC ([5]; pH 6.6): > 50 µg/mL
MIC [8]: > 50 µg/mL
Log k [6]: 1.533
MIC [9]: > 50 µg/mL

O=C(NCc1ccc(Cl)c(Cl)c1)c1nccnc1NCc1ccc(Cl)c(Cl)c1 [Compound 9a, N-(3,4-Dichlorobenzyl)-3-((3,4-dichlorobenzyl)amino)pyrazine-2-carboxamide]
MIC [1]: > 500 µg/mL
MIC ([5]; pH 6.6): 12.5 µg/mL
MIC ([5]; value in parentheses): 27 µM
Log k [6]: 1.997
IC50 at 24 h [7]: > 100 µM

NNC(=O)c1ccncc1 [INH, isoniazid, reference compound]
MIC [1]: 7.81 to 15.6 µg/mL
MIC ([5]; pH 6.6): 0.2 µg/mL
MIC [8]: 6.25 to 12.5 µg/mL (≈ 45.6 to 91.1 µM)
MIC [9]: 3.13 to 12.5 µg/mL (≈ 22.8 to 91.1 µM)
